Measurements published in patent US20150335055A1, “BEVERAGE PR[…] BASED ON PIMARICIN AND HEADSPACE GAS” (PEPSICO, INC., priority 2013, published 2015).

What was measured:
[1] = Pimaricin concentration over time in Example 1 samples by UV-Visible spectroscopy; assay type: physicochemical; settings: pimaricin in the absence of cyclodextrin; initial 1.1 ppm; carbonated mock grape beverage, 25° C.
Text: Such reactions are a consequence of the formation of reactive oxygen species (ROS) wherein oxygen merely serves as an intermediate in the transfer of electrons in REDOX type reactions which ultimately result in the degradation of more complex molecules such as pimaricin. In this regard, O2 behaves similar to a catalyst. Similar to many reactions involving catalyst, the amount of oxygen required to drive in such reactions is very small. In this regard, it is of interest to evaluate the stability of pimaricin in solution under differing conditions of oxygen tension. Clearly, it is also of interest to establish whether the formation of a complex between pimaricin and β-cyclodextrin serves to stabilize pimaricin from degradation by reaction with oxygen. […] Briefly, pimaricin yields a very distinctive UV-visible spectrum with 3 separate absorption maxima. As pimaricin degrades, the peak heights diminish. Degradation can be tracked through the diminishing peak height of any single peak maxima or through changes in relative peak height.
A 16 week trial was conducted with a mock grape 12 Brix 2% grape juice mock glass “pony” 9.8 oz. bottle. Beverages were carbonated to 3.7 and 4.5 volumes. Five containers of each CO2 level were not inoculated and served as negative controls. […]

[2] = short exposures; cited from earlier work
[3] = tested on: Zygosaccharomyces strains or Brettanomyces strains; test: 16 week spoilage trial in carbonated lemon-lime beverage (Sierra Mist, 3.6 volumes CO2, PET), Comparative Example 1; assay type: cell-based; settings: for samples spoiled: period of the test (14 weeks, 98 days), 25° C.
Procedure: […] This beverage is carbonated to 3.6 volumes CO2 in PET containers. Negative control containers received no inoculum. Positive control samples were inoculated with either Zygosaccharomyces strains (907, 28, Marion, HP, Mt. Dew, & SM Soiler) or Brettanomyces strains Dan, H2O2, Cherry 7-UP, 1601-1, and SY-05). […] All samples were then held at 25° C. for the duration of the study. […] 33% of the samples containing 15 ppm spoiled and 100% of samples containing 5 ppm pimaricin spoiled.

[4] = tested on: pooled inoculum of strains of Saccharomyces Brettanomyces and Zygosaccharomyces; test: 16 week spoilage trial in carbonated mock grape beverage (3.7 and 4.5 volumes CO2), Example 1; assay type: cell-based; settings: 1.1 ppm pimaricin, no cyclodextrin; for first note of spoilage: 25° C.; for incidence of spoilage (frequency, 1=100%): after 100 days
Procedure: A 16 week trial was conducted with a mock grape 12 Brix 2% grape juice mock glass “pony” 9.8 oz. bottle. Beverages were carbonated to 3.7 and 4.5 volumes. Five containers of each CO2 level were not inoculated and served as negative controls. Five containers of each CO2 level were inoculated with a pooled inoculum of strains of Saccharomyces Brettanomyces and Zygosaccharomyces such that an initial cell density of 100 organisms per milliliter was achieved. These samples served as positive controls. Half of the remaining containers received the same inoculum and were also dosed with pimaricin to a concentration of 1.1 mg 1^−1 (mg per liter or mg/L). The remaining containers were dosed with pimaricin in complex with β-cyclodextrin in a manner that yielded a final concentration of pimaricin of 0.8 ppm. All samples were then held at 25° C. for the duration of the study. During the course of the study, pimaricin concentration was established in samples employing UV-Visible spectroscopy.

## (IR,3S,5R,7R,8E,12R,14E,16E,18E,20E,22R,24S,25R,26S)-{[3S,4S,5S,6R)-4-amino-3,5-dihydroxy-6-methyloxan-2-yl]oxy}-1,3,26 trihydroxy-12-methyl-10-oxo-6,11,28-trioxatricyclo[22.3.1.0^5,7]octacosa-8,14,16,18,20 pentaene-25-carboxylic acid [pimaricin]
[1]
  half-life of degradation: about 35 days
[2]
  temperature to which antimicrobial activity is stable: ≥ 120 ° F.
[3]; 5 ppm Pimaricin, week 0, day 0
  Onset of Spoilage: 0%
[3]; 5 ppm Pimaricin, week 1, day 7
  Onset of Spoilage: 0%
[3]; 5 ppm Pimaricin, week 2, day 14
  Onset of Spoilage: 0%
[3]; 5 ppm Pimaricin, week 3, day 21
  Onset of Spoilage: 0%
[3]; 5 ppm Pimaricin, week 4, day 28
  Onset of Spoilage: 0%
[3]; 5 ppm Pimaricin, week 5, day 35
  Onset of Spoilage: 0%
[3]; 5 ppm Pimaricin, week 6, day 42
  Onset of Spoilage: 0%
[3]; 5 ppm Pimaricin, week 7, day 49
  Onset of Spoilage: 0%
[3]; 5 ppm Pimaricin, week 8, day 56
  Onset of Spoilage: 0%
[3]; 5 ppm Pimaricin, week 9, day 63
  Onset of Spoilage: 75%
[3]; 5 ppm Pimaricin, week 10, day 70
  Onset of Spoilage: 75%
[3]; 5 ppm Pimaricin, week 11, day 77
  Onset of Spoilage: 100%
[3]; 5 ppm Pimaricin, week 12, day 84
  Onset of Spoilage: 100%
[3]; 5 ppm Pimaricin, week 13, day 91
  Onset of Spoilage: 100%
[3]; 5 ppm Pimaricin, week 14, day 98
  Onset of Spoilage: 100%
[3]; 5 ppm Pimaricin, week 15, day 105
  Onset of Spoilage: 100%
[3]; 5 ppm Pimaricin, week 16, day 112
  Onset of Spoilage: 100%
[3]; 5 ppm Pimaricin, week 17, day 119
  Onset of Spoilage: 100%
[3]; 5 ppm Pimaricin, week 18, day 126
  Onset of Spoilage: 100%
[3]; 5 ppm Pimaricin, week 19, day 133
  Onset of Spoilage: 100%
[3]; 5 ppm Pimaricin, week 20, day 140
  Onset of Spoilage: 100%
[3]; 5 ppm Pimaricin, week 21, day 147
  Onset of Spoilage: 100%
[3]; 5 ppm Pimaricin, week 22, day 154
  Onset of Spoilage: 100%
[3]; 5 ppm Pimaricin, week 23, day 161
  Onset of Spoilage: 100%
[3]; 5 ppm Pimaricin, week 24, day 168
  Onset of Spoilage: 100%
[3]; 5 ppm pimaricin
  samples spoiled: 100%
[3]; 15 ppm Pimaricin, week 0, day 0
  Onset of Spoilage: 0%
[3]; 15 ppm Pimaricin, week 1, day 7
  Onset of Spoilage: 0%
[3]; 15 ppm Pimaricin, week 2, day 14
  Onset of Spoilage: 0%
[3]; 15 ppm Pimaricin, week 3, day 21
  Onset of Spoilage: 0%
[3]; 15 ppm Pimaricin, week 4, day 28
  Onset of Spoilage: 0%
[3]; 15 ppm Pimaricin, week 5, day 35
  Onset of Spoilage: 0%
[3]; 15 ppm Pimaricin, week 6, day 42
  Onset of Spoilage: 0%
[3]; 15 ppm Pimaricin, week 7, day 49
  Onset of Spoilage: 0%
[3]; 15 ppm Pimaricin, week 8, day 56
  Onset of Spoilage: 0%
[3]; 15 ppm Pimaricin, week 9, day 63
  Onset of Spoilage: 0%
[3]; 15 ppm Pimaricin, week 10, day 70
  Onset of Spoilage: 0%
[3]; 15 ppm Pimaricin, week 11, day 77
  Onset of Spoilage: 33%
[3]; 15 ppm Pimaricin, week 12, day 84
  Onset of Spoilage: 33%
[3]; 15 ppm Pimaricin, week 13, day 91
  Onset of Spoilage: 33%
[3]; 15 ppm Pimaricin, week 14, day 98
  Onset of Spoilage: 33%
[3]; 15 ppm Pimaricin, week 15, day 105
  Onset of Spoilage: 33%
[3]; 15 ppm Pimaricin, week 16, day 112
  Onset of Spoilage: 33%
[3]; 15 ppm Pimaricin, week 17, day 119
  Onset of Spoilage: 33%
[3]; 15 ppm Pimaricin, week 18, day 126
  Onset of Spoilage: 33%
[3]; 15 ppm Pimaricin, week 19, day 133
  Onset of Spoilage: 33%
[3]; 15 ppm Pimaricin, week 20, day 140
  Onset of Spoilage: 33%
[3]; 15 ppm Pimaricin, week 21, day 147
  Onset of Spoilage: 33%
[3]; 15 ppm Pimaricin, week 22, day 154
  Onset of Spoilage: 33%
[3]; 15 ppm Pimaricin, week 23, day 161
  Onset of Spoilage: 33%
[3]; 15 ppm Pimaricin, week 24, day 168
  Onset of Spoilage: 33%
[3]; 15 ppm pimaricin
  samples spoiled: 33%
[3]; 25 ppm Pimaricin, week 0, day 0
  Onset of Spoilage: 0%
[3]; 25 ppm Pimaricin, week 1, day 7
  Onset of Spoilage: 0%
[3]; 25 ppm Pimaricin, week 2, day 14
  Onset of Spoilage: 0%
[3]; 25 ppm Pimaricin, week 3, day 21
  Onset of Spoilage: 0%
[3]; 25 ppm Pimaricin, week 4, day 28
  Onset of Spoilage: 0%
[3]; 25 ppm Pimaricin, week 5, day 35
  Onset of Spoilage: 0%
[3]; 25 ppm Pimaricin, week 6, day 42
  Onset of Spoilage: 0%
[3]; 25 ppm Pimaricin, week 7, day 49
  Onset of Spoilage: 0%
[3]; 25 ppm Pimaricin, week 8, day 56
  Onset of Spoilage: 0%
[3]; 25 ppm Pimaricin, week 9, day 63
  Onset of Spoilage: 0%
[3]; 25 ppm Pimaricin, week 10, day 70
  Onset of Spoilage: 0%
[3]; 25 ppm Pimaricin, week 11, day 77
  Onset of Spoilage: 0%
[3]; 25 ppm Pimaricin, week 12, day 84
  Onset of Spoilage: 0%
[3]; 25 ppm Pimaricin, week 13, day 91
  Onset of Spoilage: 0%
[3]; 25 ppm Pimaricin, week 14, day 98
  Onset of Spoilage: 0%
[3]; 25 ppm Pimaricin, week 15, day 105
  Onset of Spoilage: 0%
[3]; 25 ppm Pimaricin, week 16, day 112
  Onset of Spoilage: 0%
[3]; 25 ppm Pimaricin, week 17, day 119
  Onset of Spoilage: 0%
[3]; 25 ppm Pimaricin, week 18, day 126
  Onset of Spoilage: 0%
[3]; 25 ppm Pimaricin, week 19, day 133
  Onset of Spoilage: 0%
[3]; 25 ppm Pimaricin, week 20, day 140
  Onset of Spoilage: 0%
[3]; 25 ppm Pimaricin, week 21, day 147
  Onset of Spoilage: 0%
[3]; 25 ppm Pimaricin, week 22, day 154
  Onset of Spoilage: 0%
[3]; 25 ppm Pimaricin, week 23, day 161
  Onset of Spoilage: 0%
[3]; 25 ppm Pimaricin, week 24, day 168
  Onset of Spoilage: 0%
[3]; equivalent of 30 mg pimaricin per ml
  samples spoiled: None
[3]; samples which contained 25 ppm pimaricin
  freedom from spoilage for duration of shelf-life: remain free of spoilage
[4]; 3.7 volumes CO2
  first note of spoilage: 20 days
  incidence of spoilage (frequency, 1=100%): 0.6
[4]; 4.5 volumes CO2
  first note of spoilage: 20 days
  incidence of spoilage (frequency, 1=100%): 0.6
